Earlier results as cited in publication PMC10931745 (International Journal of Molecular Sciences, 2024).

What was measured:
[1] = tested on: Staphylococcus aureus (ATCC 23235); set-up: method as in doi:10.1186/s40543-021-00294-2; conditions: literature data ref 75; cited from earlier work
[2] = tested on: Escherichia coli (ATCC 25922); set-up: method as in PMID 36179970; conditions: literature data ref 74; cited from earlier work
[3] = tested on: Klebsiella pneumoniae (ATCC 13883); set-up: method as in PMID 35203751; conditions: literature data ref 77; cited from earlier work
[4] = tested on: Enterococcus faecalis (ATCC 19433); set-up: method as in PMID 24586598; conditions: literature data ref 78; cited from earlier work
[5] = tested on: Staphylococcus epidermidis (ATCC 14990); set-up: method as in PMID 16556639; conditions: literature data ref 76; cited from earlier work

Structure (SMILES)	M.B.C. S. aureus [1]	M.I.C. S. aureus [1]	M.B.C. E. coli [2] [µg/mL]	M.I.C. E. coli [2] [µg/mL]	M.B.C. K. pneumoniae [3] [µg/mL]	M.I.C. K. pneumoniae [3] [µg/mL]	M.B.C. E. faecalis [4] [µg/mL]	M.I.C. E. faecalis [4] [µg/mL]	M.B.C. S. epidermidis [5] [µg/mL]	M.I.C. S. epidermidis [5] [µg/mL]
CC1(C)S[C@@H]2[C@H](NC(=O)[C@H](N)c3ccccc3)C(=O)N2[C@H]1C(=O)O [Ampicillin]	1/(1) [75] µg/mL	1/(1) [75] µg/mL	4	2	–	–	–	–	–	–
CNC(C)C1CCC(N)C(OC2C(N)CC(N)C(OC3OCC(C)(O)C(NC)C3O)C2O)O1 (stereo not shown) [Gentamicin]	–	–	–	–	> 40	1.25	128	4	16 to 64	8 to 32
